From US8647835B2, “Methods for separation, characterization and/or identification of microorganisms using spectroscopy” (bio Mérieux, Inc., priority 2008, dated 2014) come the findings set out here.

What all share (format): cell-based
For test [1], the system named is Streptococcus pneumoniae, strain WM-43. Briefly: Intrinsic fluorophores of S. pneumoniae pellet after detergent lysis buffer. The settings on record: for Flavin/NADH surrogate marker for viability: S. pneumoniae cell pellet; for Flavin / NADH / Tryptophan: intrinsic fluorophore level of S. pneumoniae cell pellet, detergent in 0.3M CAPS, pH 11.7; for NADH/Flavin: ratio of fluorescence signals of S. pneumoniae cell pellet. The protocol: (§1) Lysis buffers were prepared containing detergents of differing structure and lytic activity in a base buffer formulation of 0.3M CAPS, pH 11.7. These lysis buffers were functionally assessed using positive blood culture broth containing a clinical microorganism strain known to be sensitive to detergents and alkaline pH conditions, Streptococcus pneumoniae, strain WM-43. Parameters evaluated were microbial intrinsic fluorescence levels (Excitation-Emission Matrix spectra), separation efficiency, appearance of isolated microbial pellet, and Gram stain characteristics and viability of microorganisms recovered from the pellet beneath the density cushion.
(§2) The procedure was performed as follows:
(§3) Mix 2 parts of positive broth with 1 part of test lysis buffer, incubate in a 37 C water bath for 1 minute to lyse blood cells, then layer 0.5 mL of lysate over 0.2 mL of density cushion (14% w/v Iohexyl+1.93% w/v NaCl+10 mM Hepes, pH 7.4) dispensed into a 2-piece optical separation tube which was then hermetically sealed with a screw-cap. After centrifuging the tube in an Eppendorf® 5417R micrcentrifuge fitted with a A-8-11 swing out rotor (Eppendorf, New York) for 2 minutes at 10,000 rpm, the tube was placed into a custom-built adapter which coupled the base of the tube directly to a 400 micron fiber optic probe connected to a spectrofluorimeter (Fluorolog® 3 (HORIBA Jobin Yvon Inc., New Jersey), and a complete EEM scan was taken (Ex 260-850 nm; Em 260-1100 nm; every 5 nm). Following the scan, the supernatant was removed and the microbial pellet resuspended in 0.5 mL of Tryptic Soy Broth (TSB). Smears of the suspensions were prepared for Gram staining and twenty microliters of a 1:100 dilution were plated onto Sheep Blood Agar plates for viability estimation on a scale of NG (no growth) to 4+ (maximal growth).
The effect of the test detergents on the level of intrinsic fluorophores present within the S. pneumoniae cell pellet is shown in Table 5. As taught by the results presented in Example 3, the ratio of Flavin to NADH fluorescence is an excellent indicator of this sensitive microbe's health. Low ratios are associated with reduced microbial viability, such as observed with n-octyl glucoside and CHAPS detergents. The four groups represented in Table 5 fall into categories that directly correlate with the alterations observed in Gram reactivity of the S. pneumoniae cells recovered from the pellet (Table 4).

For test [2] the test system is unchanged. The test can be described thus: Gram stain and viability of S. pneumoniae recovered from pellet after detergent lysis buffer. To be noted: for Viability of Pellet: 1:100 dilution plated onto Sheep Blood Agar, scale NG to 4+. The method, then: as §1, §2, §3
Test [3] concerns S. pneumoniae strain, WM43. The test can be described thus: Viability of recovered S. pneumoniae with lysis buffer / density cushion combinations (Example 7). The settings on record: irrespective of the makeup of the density cushion.

For “polyoxyethylene (20) oleyl ether [Detergent 12]”, in test [1], the “Flavin/NADH surrogate marker for viability” value (shortened to “Flavin/NADH surrogate marker”) was “significant improvement”, the Flavin was 29,781, the NADH was 1,703,221 and the Tryptophan is recorded as 1,047,866. Moreover, the NADH/Flavin in test [1] turned out to be 57.2.
Take `CCCCCCCCO[C@@H]1O[C@H](CO)[C@@H](O)[C@H](O)[C@H]1O` [Detergent 1, n-octyl glucoside]: in test [2], the “Viability of Pellet” value is on record as “No growth”. In addition, the “Gram Stain of Pellet, Bacteria (cocci): Gram positive” value in test [2] (detergent at table concentration (0.45-3.0%) in 0.3M CAPS, pH 11.7, 1 minute 37 C, 'No organisms seen' applies to all cocci) is “No organisms seen”. Moreover, in test [1], the “Flavin/NADH surrogate marker” value is recorded as “Low ratios”, the Flavin is 71,678, the NADH was 33,268 and the Tryptophan is reported as 606,171. Further, the NADH/Flavin in test [1] is given as 0.5.
In the case of `C[C@H](CCC(=O)NCCC[N+](C)(C)CCCS(=O)(=O)[O-])[C@H]1CC[C@H]2[C@@H]3[C@H](O)C[C@@H]4C[C@H](O)CC[C@]4(C)[C@H]3C[C@H](O)[C@]12C` [Detergent 2, CHAPS], in test [2], the “Viability of Pellet” value was “Scant”. Besides, the “Gram Stain of Pellet, Bacteria (cocci): Gram negative” value in test [2] (detergent at table concentration (0.45-3.0%) in 0.3M CAPS, pH 11.7, 1 minute 37 C) is listed as “Rare Gram”. In test [1], the “Flavin/NADH surrogate marker” value was “Low ratios”, the Flavin is 77,403, the NADH is recorded as 55,976 and the Tryptophan is on record as 607,343. Besides, the NADH/Flavin in test [1] is reported as 0.7.
Regarding `CCCCCCCCCCCCOCCOCCOCCOCCOCCOCCOCCOCCOCCO` [Detergent 6, nonaethylene glycol monododecyl ether], in test [2] (desired lysis conditions of Example 6), the “effect on Gram reaction / Gram reactivity of S. pneumoniae isolate” value was “relatively minor effect”. The NADH/Flavin in test [1] came to 34.5. The “viability of the recovered S. pneumoniae cells” value in test [3] was “not as high”.
Regarding “(Octylphenoxy)polyethoxyethanol [Detergent 4]”, in test [1], the Flavin is listed as 38,703, the NADH is reported as 1,300,815, the Tryptophan is reported as 1,019,649 and the NADH/Flavin is 33.6.
